Source: patent publication US12723037B2, “Triazole derivative, method for preparing same, and use thereof” (SHENZHEN JIKANG PHARMACEUTICAL TECHNOLOGY CO., LTD., priority 2021, dated 2026)
Where two headings read alike, the source gives them in different places.

Assays:
RPMI8226 cells = assay: Cytotoxicity experiment (Cell-Titer, 72 h) in RPMI8226 cells; format: cell-based; details: for IC50: Homo sapiens, RPMI-8226, 72 h, Cell-Titer
Method: 4. Cytotoxicity Experiment
• (1) RPMI8226 cells in the logarithmic growth phase were added to a 384-well plate at 1000 cells/well in a volume of 18 μL/well and incubated at 37° C., 5% CO2 for 24 h. • (2) The test compound at a stock concentration of 10 mM was diluted 10-fold with DMSO and then 100-fold with a serum-free 1640 medium to give a dilution at a working concentration of 10 μM containing 1% DMSO. 10 concentrations were then obtained by 2-fold serial dilution using a serum-free 1640 medium containing 1% DMSO, with the tenth concentration point being a solvent control group (no drug). The diluted compound was added into the plated cell plate at 2 μL/well to give final compound concentrations from 1000 nM (2-fold gradient dilution, 10 concentration gradients), and 4 replicates were set for each concentration. 1% DMSO was used as a solvent control and KPT-8602 as a positive control. • (3) The cells were incubated at 37° C. for 72 h, and 10 μL of Cell-Titer assay reagent was added to each well, followed by incubation in a cell incubator for 10 min. • (4) The mixture was well mixed by shaking and then assayed by the Cell-Titer program running on a microplate reader. The inhibition % and IC50 values (μM) were calculated using GraphPad Prism 5.

[1] = Pharmacokinetic results of the drugs in SD rats; format: in vivo; details: for clearance: read-out: Cl s, spp
Description: III. Pharmacokinetic Results of the Drugs in SD Rats

[2] = In vivo toxicity assay in BALB/C mice (21 days, intragastric, once daily)
Method: IV. In Vivo Toxicity Assay of Candidate Compounds in BALB/C
25 BALB/C mice were randomly divided into the following 5 groups: solvent control group (Control), positive control KPT-8602 (30 mg/kg, once daily) group, KPT-8602 (60 mg/kg, once daily) group, compound I (30 mg/kg, once daily) group, and compound I (60 mg/kg, once daily) group, with 5 mice in each group. Each group was intragastrically given a test compound at a corresponding concentration at a dose of 3 mL/kg. KPT-8602 and compound I were administered daily for 21 consecutive days.

[3] = rat, in vivo, po (10 mg/kg), read-out: AUC0-inf
[4] = 30 mg/kg once daily, intragastric, 21 days

Compound	cellular activity compared with KPT-8602 (RPMI8226 cells)	IC50 (RPMI8226 cells)	AUC0-inf ([1]; iv (2 mg/kg), in ng·h/mL)	AUC0-t ([1]; iv (2 mg/kg), in ng·h/mL)	Cl s, spp ([1]; po (10 mg/kg))	MRT ([1]; rat, in vivo, iv (2 mg/kg))	half-life ([1]; rat, in vivo, iv (2 mg/kg))	clearance ([1]; rat, in vivo, iv (2 mg/kg))	MRT ([1]; rat, in vivo, po (10 mg/kg))	Tmax ([1]; rat, in vivo, po (10 mg/kg))	bioavailability ([1]; rat, in vivo, po (10 mg/kg))	half-life ([1]; rat, in vivo, po (10 mg/kg))	AUC0-inf [1, 3]	body weight change [2, 4]	also measured
CONC(=O)/C(=C/n1cnc(-c2cc(C(F)(F)F)cc(C(F)(F)F)c2)n1)c1cncnc1 [Compound I, (E)-3-(3-(3,5-Bis(trifluorometh-yl)phenyl)-1H-1,2,4-triazol-1-yl)-N-methoxy-2-(pyri-midin-5-yl)acrylamide]	substantially equivalent to KPT-8602	370 nM	1493	1301	43.8 mL/min/kg	2.49 h	4.23 h	24.2 mL/min/kg	7.65 h	0.25 h	55.9%	5.59 h	3890 ng·h/mL	body weights comparable to the blank	intravenous and oral AUCs compared with KPT-8602 ([1]; iv and po): much higher than those of KPT-8602; oral and intravenous half-lives compared with KPT-8602 ([1]; iv and po): longer than those of KPT-8602; oral half-life compared with KPT-8602 ([1]; po): about 2 times; Cmax ([1]; po (10 mg/kg)): 899 ng/mL; AUC0-t ([1]; rat, in vivo, po (10 mg/kg), read-out: AUC0-t): 3210 ng·h/mL; body weight change ([2]; 60 mg/kg once daily, intragastric, 21 days): body weights comparable to the blank; safety (overall conclusion) ([2]; 30 and 60 mg/kg once daily, 21 days): good safety
O=C(NO)/C(=C/n1cnc(-c2cc(C(F)(F)F)cc(C(F)(F)F)c2)n1)c1cncnc1 [II, (E)-3-(3-(3,5-Bis(trifluorometh-yl)phenyl)-1H-1,2,4-triazol-1-yl)-N-hydroxy-2-(pyri-midin-5-yl)acrylamide]		6900 nM													
CO/C(=N\C(C)(C)C)NC(=O)/C(=C/n1cnc(-c2cc(C(F)(F)F)cc(C(F)(F)F)c2)n1)c1cncnc1 [III, Methyl(Z)-N-((E)-3-(3-(3,5-bis(trifluoromethyl)phenyl)-1H-1,2,4-triazol-1-yl)-2-(py-rimidin-5-yl)acryloyl)-N′-(tert-butyl)carbamate]		7100 nM													
CCONC(=O)/C(=C/n1cnc(-c2cc(C(F)(F)F)cc(C(F)(F)F)c2)n1)c1cncnc1 [IV, (E)-3-(3-(3,5-Bis(trifluorometh-yl)phenyl)-1H-1,2,4-triazol-1-yl)-N-ethoxy-2-(pyrimi-din-5-yl)acrylamide]	substantially equivalent to KPT-8602	540 nM													
NC(=O)/C(=C/n1cnc(-c2cc(C(F)(F)F)cc(C(F)(F)F)c2)n1)c1cncnc1 [KPT-8602, reference compound]		340 nM	998	963	67.4 mL/min/kg	2.48 h	3.04 h	34.4 mL/min/kg	3.85 h	1 h	52%	2.69 h	2600 ng·h/mL	significant decrease in body weight	AUC0-t ([1]; po (10 mg/kg), in ng·h/mL): 2541; Cmax ([1]; rat, in vivo, po (10 mg/kg), read-out: Cmax): 720 ng/mL; mortality by day 10 ([2]; 60 mg/kg once daily, intragastric): all died; mice died on day 7 ([2]; 60 mg/kg once daily, intragastric, 5 mice per group): two
